Assay results: patent publication US8669256B2, “Substituted thieno[2,3-b]pyrazine compounds as modulators of B-Raf kinase activity” (Merck Sharp & Dohme B.V., priority 2010, dated 2014)
Like-named read-outs stand apart in the source and are kept apart here.

Tests used:
[1] = molecular target: T1, GST-tagged human recombinant active B-Raf (Δ1-415) (Homo sapiens, UniProt P15056); assay: B-Raf kinase activity, IMAP coupled assay (B-Raf/MEK1/ERK2, fluorescence polarization); type: biochemical; conditions: bounds also given as pIC50 (>6, >7, >8); 60 min pre-incubation with compound, ATP 50 μM; read-out: IC50, B-Raf IMAP assay
T1 construct: GST; purchased Upstate/Millipore
T1 sequence (P15056 416-766, stated change not applied): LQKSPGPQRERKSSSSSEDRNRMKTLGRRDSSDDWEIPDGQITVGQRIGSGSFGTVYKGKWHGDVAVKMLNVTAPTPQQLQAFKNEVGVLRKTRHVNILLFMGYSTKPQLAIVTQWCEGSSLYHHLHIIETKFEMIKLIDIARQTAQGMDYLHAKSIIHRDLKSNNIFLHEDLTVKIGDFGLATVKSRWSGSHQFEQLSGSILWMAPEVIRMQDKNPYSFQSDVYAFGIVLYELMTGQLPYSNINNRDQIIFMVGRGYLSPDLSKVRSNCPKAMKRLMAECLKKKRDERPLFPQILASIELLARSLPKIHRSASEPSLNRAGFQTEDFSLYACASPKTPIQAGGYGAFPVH
Outline: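 Coupled cascade: GST-B-Raf (Δ1-415; 0.2 U/ml) pre-incubated with compound (1% DMSO) 60 min at room temperature, then unactive MEK1 (64 ng/ml), unactive ERK2 (600 ng/ml), 50 nM fluorescein-Erktide and 50 μM ATP added for 60 min at 30 °C, pH 7.2 Tris buffer. Phosphopeptide captured on IMAP beads (60 min); fluorescence polarization read.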

[2] = system: phosphorylation of ERK1/2 in A375 cells containing mutant B-Raf (V600E); assay: Phospho-ERK FACE assay in A375 (B-Raf mutated) melanoma cell line; type: cell-based; conditions: Homo sapiens, read-out: IC50, A375 melanoma phospho-ERK assay
Method: The B-Raf activity can also be determined in a B-Raf mutated melanoma cell line, such as the A375 cell line. Inhibition of phosphorylation of ERK1/2 can be measured using a Fast Activated Cell-based ELISA (FACE) from Active Motif (Carlsbad, U.S.A., CA). E.g. A375 cells, which are cells containing a mutant form of B-Raf (V600E) and thus contain high levels of phosphorylated ERK, can be incubated with Raf inhibitors. Then cells can be incubated with anti-phospho-ERK antibody and subsequently with horse radish peroxidase (HRP)-labeled secondary antibody. Finally, chemiluminescence reagents can be added, which react with HRP, to give a luminescence signal.
Determination of B-Raf Activity Using a A375 (B-Raf mutated) Melanoma Cell Line (Phospho-ERK FACE Assay)
Inhibition of phosphorylation of ERK1/2 was measured using a Fast Activated Cell-based ELISA (FACE) from Active Motif (Carlsbad, U.S.A., CA). Briefly, A375 cells, which are cells containing a mutant form of B-Raf (V600E) and thus contain high levels of phosphorylated ERK, were incubated for 2 hours with Raf inhibitors. Then, cells were fixed with paraformaldehyde, washed and following quenching and blocking, incubated with anti-phospho-ERK antibody, and as a control, on a separate plate, with ERK antibody. After washing and removal of the primary antibodies, the fixed cells were incubated with horse radish peroxidase (HRP)-labeled secondary antibody. Finally, chemiluminescence reagents were added, which react with HRP, to give a luminescence signal.
Detailed protocol: A375 cells were cultured in DMEM/F12 (Dulbecco's Modified Eagle Medium Nutrient Mixture F-12) (Invitrogen), supplemented with 10% fetal bovine serum (FBS) (Biowhittaker), 100 U/ml penicillin G and 100 μg/ml streptomycin (Gibco). For the phospho ERK assay, cells were seeded at a density of 15,000 cells/well in 100 μl culture medium in 96-well plates and incubated in a humidified atmosphere at 5% CO2 and 37° C. After 24 hours, cells were washed with DMEM/F12 supplemented with 0.1% FBS (assay medium 120 μl of assay medium was added and the plates were incubated overnight in a humidified atmosphere at 5% CO2 and 37° C. The next day, the assay medium was removed and compounds diluted in assay medium were added to the cells. Final DMSO concentration in the assay was 1%. After 2 hours incubation, cells were fixed by replacing the assay medium with 100 μl of 4% formaldehyde (Bio-Connect, Huissen, The Netherlands) in PBS. After 20 minutes of incubation at room temperature, cells were washed three times with 200 μl wash buffer (0.1% (vol/vol) Triton X-100 in PBS from the FACE kit) followed by an incubation of 20 minutes with 100 μl quenching buffer, containing 1% (vol/vol) hydrogen peroxide (Thermo Fisher Scientific) and 0.1% (vol/vol) sodium azide (Sigma-Aldrich) in phosphate-buffered saline. Cells were washed two times with wash buffer, incubated for 1 hour with 100 μl antibody blocking buffer from the kit and washed two times again. 40 μl of diluted antibody against phosphorylated ERK1/2 (1:500 from the FACE kit) was added and incubated overnight at 4° C. The phospho-ERK antibody has been raised against a synthetic phospho-peptide corresponding to residues Thr202 and Tyr204 of human ERK1 and Thr185 and Tyr187 of human ERK2. For the detection of total ERK, antibody against ERK1 and ERK2 (1:500 from the FACE kit) was added. The excessive primary antibody was washed out, and 100 μl diluted HRP-conjugated anti-rabbit IgG (1:2000 from the FACE kit) was added and incubated for 1 hour at room temperature. Secondary antibody was removed and cells were washed 3 times with wash buffer and twice with PBS. 50 μl per well of FACE chemiluminescent working solution was added. Chemiluminescence was measured on an Envision Multilabel reader.

[3] = A-375, A375 cells, 2 hours incubation, class between 10 μM and 1 μM (5<pIC50<6)
[4] = A-375, A375 cells, 2 hours incubation, between 1 μM and 100 nM (6<pIC50<7)
[5] = A-375, A375 cells, 2 hours incubation, class given as below 100 nM (pIC50>7)

IC50 [1]	IC50 [2, 3]	IC50 [2, 4]	IC50 [2, 5]	Structure (SMILES)	IC50 ([2]; A-375, 2 h)
< 100 nM	1000 to 10000 nM	–	–	Cc1ccc(NC(=O)c2cc(F)cc(C(F)(F)F)c2)cc1NC(=O)c1cc2nccnc2s1 [Example 32, N-(5-(3-fluoro-5-(trifluoromethyl)benzamido)-2-methylphenyl)thieno[2,3-b]pyrazine-6-carboxamide]	–
< 100 nM	1000 to 10000 nM	–	–	Cc1ccc(NC(=O)c2cccc(OC(F)(F)F)c2)cc1NC(=O)c1cc2nccnc2s1 [Example 35, N-(2-methyl-5-(3-(trifluoromethoxy)benzamido)phenyl)thieno[2,3-b]pyrazine-6-carboxamide]	–
< 100 nM	1000 to 10000 nM	–	–	Cc1ccc(NC(=O)c2cccc(C3(C#N)CCOCC3)c2)cc1NC(=O)c1cc2nccnc2s1 [Example 36, N-(5-(3-(4-cyanotetrahydro-2H-pyran-4-yl)benzamido)-2-methylphenyl)thieno[2,3-b]pyrazine-6-carboxamide]	–
< 100 nM	1000 to 10000 nM	–	–	Cc1ccc(NC(=O)c2ccc(F)c(C(F)(F)F)c2)cc1NC(=O)c1cc2nccnc2s1 [Example 37, N-(5-(4-fluoro-3-(trifluoromethyl)benzamido)-2-methylphenyl)thieno[2,3-b]pyrazine-6-carboxamide]	–
< 100 nM	–	100 to 1000 nM	–	Cc1ccc(NC(=O)c2cccc(C(F)(F)F)c2F)cc1NC(=O)c1cc2nccnc2s1 [Example 38, N-(5-(2-fluoro-3-(trifluoromethyl)benzamido)-2-methylphenyl)thieno[2,3-b]pyrazine-6-carboxamide]	–
< 100 nM	1000 to 10000 nM	–	–	Cc1ccc(NC(=O)c2cc(OC(F)(F)F)ccc2F)cc1NC(=O)c1cc2nccnc2s1 [Example 39, N-(5-(2-fluoro-5-(trifluoromethoxy)benzamido)-2-methylphenyl)thieno[2,3-b]pyrazine-6-carboxamide]	–
< 100 nM	1000 to 10000 nM	–	–	Cc1ccc(NC(=O)Nc2cccc(C(C)(C)C#N)c2)cc1NC(=O)c1cc2nccnc2s1 [Example 40, N-(5-(3-(3-(2-cyanopropan-2-yl)phenyl)ureido)-2-methylphenyl)thieno[2,3-b]pyrazine-6-carboxamide]	–
< 10 nM	–	100 to 1000 nM	–	Cc1ccc(NC(=O)c2cccc(C(C)(C)C#N)c2)cc1NC(=O)c1sc2nccnc2c1C [Example 42, N-(5-(3-(2-cyanopropan-2-yl)benzamido)-2-methylphenyl)-7-methylthieno[2,3-b]pyrazine-6-carboxamide]	–
< 10 nM	–	100 to 1000 nM	–	Cc1ccc(NC(=O)c2cccc(C(C)(C)C#N)c2)cc1NC(=O)c1sc2nccnc2c1C#N [Example 43, 7-cyano-N-(5-(3-(2-cyanopropan-2-yl)benzamido)-2-methylphenyl)thieno[2,3-b]pyrazine-6-carboxamide]	–
< 10 nM	–	100 to 1000 nM	–	C=Cc1c(C(=O)Nc2cc(NC(=O)c3cccc(C(C)(C)C#N)c3)ccc2C)sc2nccnc12 [Example 44, N-(5-(3-(2-cyanopropan-2-yl)benzamido)-2-methylphenyl)-7-vinylthieno[2,3-b]pyrazine-6-carboxamide]	–
< 100 nM	–	–	< 100 nM	CCNc1c(C(=O)Nc2cc(NC(=O)c3cccc(C(C)(C)C#N)c3)ccc2C)sc2nccnc12 [Example 46, N-(5-(3-(2-cyanopropan-2-yl)benzamido)-2-methylphenyl)-7-(ethylamino)thieno[2,3-b]pyrazine-6-carboxamide]	–
< 100 nM	–	100 to 1000 nM	–	Cc1ccc(NC(=O)c2cccc(C(C)(C)C#N)c2)cc1NC(=O)c1sc2ncc(C#N)nc2c1N [Example 49, 7-amino-2-cyano-N-(5-(3-(2-cyanopropan-2-yl)benzamido)-2-methylphenyl)thieno[2,3-b]pyrazine-6-carboxamide]	–
< 100 nM	–	–	< 100 nM	Cc1ccc(NC(=O)c2cccc(C(C)(C)C#N)c2)cc1NC(=O)c1sc2ncc(-c3ccco3)nc2c1N [Example 50, 7-amino-N-(5-(3-(2-cyanopropan-2-yl)benzamido)-2-methylphenyl)-2-(furan-2-yl)thieno[2,3-b]pyrazine-6-carboxamide]	–
< 100 nM	–	100 to 1000 nM	–	CC(C)(C#N)c1cccc(C(=O)Nc2ccc(Br)c(NC(=O)c3cc4nccnc4s3)c2)c1 [Example 51, N-(2-bromo-5-(3-(2-cyanopropan-2-yl)benzamido)phenyl)thieno[2,3-b]pyrazine-6-carboxamide]	–
< 100 nM	–	100 to 1000 nM	–	Cc1ccc(NC(=O)c2cccc(C(F)(F)F)c2)cc1NC(=O)c1cc2nc(-c3cccnc3)cnc2s1 [Example 53, N-(2-methyl-5-(3-(trifluoromethyl)benzamido)phenyl)-2-(pyridin-3-yl)thieno[2,3-b]pyrazine-6-carboxamide]	–
< 10 nM	–	–	< 100 nM	Cc1ccc(NC(=O)c2cccc(C(F)(F)F)c2)cc1NC(=O)c1sc2nccnc2c1N [Example 54, 7-amino-N-(2-methyl-5-(3-(trifluoromethyl)benzamido)phenyl)thieno[2,3-b]pyrazine-6-carboxamide]	–
< 100 nM	1000 to 10000 nM	–	–	CC(C)(C#N)c1cccc(C(=O)Nc2cc(NC(=O)c3cc4nccnc4s3)c(F)cc2F)c1 [Example 55, N-(5-(3-(2-cyanopropan-2-yl)benzamido)-2,4-difluorophenyl)thieno[2,3-b]pyrazine-6-carboxamide]	–
< 10 nM	–	100 to 1000 nM	–	Cc1ccc(NC(=O)c2cccc(C(C)(C)C#N)c2)cc1NC(=O)c1cc2ncc(NCCN(C)C)nc2s1 [Example 61, N-(5-(3-(2-cyanopropan-2-yl)benzamido)-2-methylphenyl)-3-(2-(dimethylamino)ethylamino)thieno[2,3-b]pyrazine-6-carboxamide]	–
< 10 nM	–	100 to 1000 nM	–	Cc1ccc(NC(=O)c2cccc(C(C)(C)C#N)c2)cc1NC(=O)c1cc2ncc(NCCN3CCOCC3)nc2s1 [Example 63, N-(5-(3-(2-cyanopropan-2-yl)benzamido)-2-methylphenyl)-3-(2-morpholinoethylamino)thieno[2,3-b]pyrazine-6-carboxamide]	–
< 10 nM	–	100 to 1000 nM	–	COCCNc1cnc2cc(C(=O)Nc3cc(NC(=O)c4cccc(C(C)(C)C#N)c4)ccc3C)sc2n1 [Example 65, N-(5-(3-(2-cyanopropan-2-yl)benzamido)-2-methylphenyl)-3-(2-methoxyethylamino)thieno[2,3-b]pyrazine-6-carboxamide]	–

Structure (SMILES)	IC50 [1]	IC50 [2, 3]	IC50 [2, 4]	IC50 [2, 5]	IC50 ([2]; A-375, 2 h)
Cc1ccc(NC(=O)c2cccc(C(C)(C)C#N)c2)cc1NC(=O)c1sc2nccnc2c1Br [Example 41, 7-bromo-N-(5-(3-(2-cyanopropan-2-yl)benzamido)-2-methylphenyl)thieno[2,3-b]pyrazine-6-carboxamide]	< 10 nM	–	–	–	100 to 1000 nM
